pIC50: −log10 of the molar value. Ends that are not written are not given here.
What was measured:
[1] = tested on: cells with HER2/ErbB2 amplification; details: on average; cited from earlier work
[2] = tested on: polymerized and soluble tubulin fractions of SKBR3-pBabe and SKBR3-FoxM1 expressing lines; experiment: polymerized vs soluble tubulin fractionation and western blot; format: cell-based, human
Method: In addition, the possibility that FoxM1 induced altered microtubule dynamics was investigated. Paclitaxel has been known to stabilize tubulin, and thus the ratio of polymerized to soluble microtubule fractions was compared. Cell lysates of SKBR3-pBabe and SKBR3-FoxM1 expressing lines untreated or treated with paclitaxel were fractionated to obtain polymerized and soluble tubulin fractions. […] Briefly, cells were seeded at 80% confluency in 24-well plates, collected in hypotonic buffer (1 mM MgCl2, 2 mM EGTA, 0.5% Nonidet P-40, 20 mM Tris-HCl pH 6.8) and centrifuged for 10 minutes at room temperature (14,000 rpm). The supernatant was used as the soluble fraction while the pellet was used as the polymerized fraction.

[3] = tested on: SKBR3 cells; experiment: cell viability, CellTiter-Glo Luminescent assay, paclitaxel; format: cell-based, human; details: for pIC50: Homo sapiens, TAXOL 24 hours; for cells survived: 0.1 μM, seven days
Method: After seven days of treatment in a low dose of paclitaxel (TAXOL) (0.1 μM), only 25% of SKBR3-pBabe cells survived, while nearly 50% of SKBR3-FoxM1 cells survived (FIG. 4A).

[4] = tested on: GATA-3 promoter; experiment: ChIP assay, DNMT3b binding; format: cell-based, human; details: compared with control siRNA
Method: (§1) The mouse GATA-3 promoter contains three FoxM1 consensus sequences within 2 kb of the transcriptional start site. Whether FoxM1 directly regulated GATA-3 at the RNA level was investigated using chromatin immunoprecipitation (ChIP) assay. Cells were fixed in 1% formaldehyde for 10 minutes to allow crosslinking and then quenched with […] glycine. For in vivo ChIP assays, single cell suspensions were generated using collagenase/hyaluronidase followed by fixing. Cells were collected and lysed in SDS lysis buffer (1% SDS, 10 mM EDTA, 50 mM Tris pH 8, protease and phosphatase inhibitors). Lysate was sonicated, pre-cleared, and incubated with antibodies against GFP (Clontech, JL-8), GATA-3 (Santa Cruz HG3-31), FoxM1 (Major et al., 2004, “Forkhead box M1B transcriptional activity requires binding of Cdk-cyclin complexes for phosphorylation-dependent recruitment of p300/CBP coactivators” Mol Cell Biol 24: 2649-61), DNMT3b (Imgenex 52A1018), or Rb (Cell Signaling, 4H1) followed by purification with Protein-A and Protein-G Sepharose beads in the presence of salmon sperm DNA (Upstate). Beads were washed and DNA extracted using a PCR purification kit (Qiagen). PCR products were visualized by gel electrophoresis or analyzed using SYBR Green (Bio-Rad), normalized to the IgG control (Santa Cruz Biotechnology).
DNMT3b has been specifically implicated in mammary tumor biology. […]

[5] = tested on: GATA-3 promoter; experiment: ChIP assay, Rb binding; format: cell-based, human; details: compared with control siRNA
Method: as §1

[6] = tested on: SKBR3 resistant cells; experiment: cell number after FoxM1 siRNA knockdown and HERCEPTIN; format: cell-based, human; details: in conjunction with HERCEPTIN
Method: The source of resistance in these lines was not uniform, as an increase in phosphorylated Akt was only observed in SKBR3 cells. FoxM1 levels in parental and resistant lines were assayed by western blot analysis. Extracts were prepared in lysis buffer containing 1 mM EDTA, 0.15M NaCl, 0.05M Tris-HCl pH 7.5, and 0.5% Triton-X. Phosphatate Inhibitor Cocktail Set II (Calbiochem) and protease inhibitor (Roche) were added before each experiment using the rabbit polyclonal antibody referenced above. Quantification was performed using Image J software (NIH).
Additionally, levels of cell cycle regulators, Polo-like Kinase 1 (1.5-fold) and Cyclin B1 (16.6-fold) were amplified in the resistant line as compared to the parental control line (FIG. 3B). GAPDH is used as a loading control to ensure that the same amount of RNA was added to each reaction. All bands are normalized to GAPDH bands from the same sample and then normalized values from parental and resistant cells can be compared. […] The control (5′ […] 3′, SEQ ID NO:12) and FoxM1 targeting siRNA (5′ […] 3′, SEQ ID NO:9) were both from Dharmacon, and purified using standard desalting methods. Prior to transfection, plates are washed and cells are placed in serum-free media. siRNA was added to a final concentration of 7.5 pm to each plate using Lipofectamine 2000 (Invitrogen) transfection. […]

[7] = tested on: SKBR3-pBabe and FoxM1 cells; experiment: surviving cells after ARF-peptide added to HERCEPTIN, paclitaxel or combination; format: cell-based, human
Method: (§2) FIGS. 6A and 6B are graphs showing quantitative colony forming assay of parental or resistant SKBR3 and MDA-MB-453 cells treated with either ARF-peptide or mutant peptide (2 μM). […] Also shown below the graphs are images of representative wells of cells from such colony-forming assays.
The ability of the ARF-peptide to sensitize FoxM1-expressing cells to treatment was also investigated.

[8] = tested on: SKBR3 resistant cells; experiment: colony forming assay, ARF-derived peptide and trastuzumab; format: cell-based, human; details: with trastuzumab; peptide 2 μM
Method: as §2
(§3) The cells were maintained in HERCEPTIN thereafter. […] Quantification was done using Adobe Photoshop.
(§4) Studies have shown that FoxM1 is inhibited by a small peptide that contains a 19-amino acid region of the p19ARF protein (residues 26 to 44) (SEQ ID NO:2). […] Treatment with the ARF-derived peptide and trastuzumab led to a 90% reduction in cell numbers in both SKBR3 and MDA-MB-453 resistant cells as measured by colony forming assays (following the same protocol as described above in Example 5) (FIG. 6A).

[9] = tested on: MDA-MB-453 resistant cells; experiment: as above; format: cell-based, human; details: with trastuzumab; peptide 2 μM
Method: as §2, §3, §4

[10] = tested on: hepatocellular carcinoma cells; details: mouse; cited from earlier work
[11] = FoxM1-expressing cells, with HERCEPTIN and paclitaxel combination treatment

## CC(=O)O[C@H]1C(=O)[C@@]2(C)[C@H]([C@H](OC(=O)c3ccccc3)[C@]3(O)C[C@H](OC(=O)[C@H](O)[C@@H](NC(=O)c4ccccc4)c4ccccc4)C(C)=C1C3(C)C)[C@]1(OC(C)=O)CO[C@@H]1C[C@@H]2O [paclitaxel]
[1]
  higher dose required to produce the same effect: 100 fold
[2]; FoxM1-expressing cells after paclitaxel treatment
  ratio for β-tubulin: did not show a significant change
[2]; SKBR3-pBabe cells after paclitaxel treatment
  α- and β-tubulin distribution: dramatic shift towards the polymerized fraction
[3]; SK-BR-3, SKBR3 cells transfected with FoxM1-specific siRNA 72 hours
  pIC50: 8.00
[3]; SK-BR-3, SKBR3 cells transfected with control siRNA 72 hours
  pIC50: 7.22
[3]; SKBR3-FoxM1 cells
  cells survived: ~50%
[3]; SKBR3-pBabe cells
  cells survived: 25%

## 5′ GGACCACUUUCCCUACUUUUU 3′ (listed as RNA, chemistry not given here) [FoxM1 targeting siRNA]
[4]
  DNMT3b binding to GATA-3 promoter at −747 and −1431: significantly decreased
[5]
  Rb binding to GATA-3 promoter: could not bind to the GATA-3 promoter
[6]
  reduction in cell number: more than 75%

## ARF-derived peptide: cell-penetrating peptide inhibitor of FoxM1 containing a 19-amino acid region of the p19ARF protein (residues 26 to 44) (KFVRSRRPRTASCALAFVN; not fully specified; UniProt Q64364 26-44, looked up, fragment)
[7]; [11]
  cell killing: more than 97%
  cells surviving: less than 3%
[7]; added to HERCEPTIN, paclitaxel, or combination treatment, three days
  cell number compared to mutant peptide: dramatic reduction in cell number
[7]; pBabe cells, all treatments
  cell killing at the same dosage compared to mutant peptide: greater cell killing
[8]
  reduction in cell numbers: 90%
[9]
  reduction in cell numbers: 90%
[10]
  proliferation and apoptosis of hepatocellular carcinoma cells in vivo: reduce proliferation and induce apoptosis
